This note sets out measurements from patent publication US7262165B2, “Aqueous preparation containing oligopeptides and etherified cyclodextrin” (Merck Patent GmbH, priority 2002, dated 2007).

This data set is described as follows: Saturation solubilities of the oligopeptide (cilengitide) in the solvent indicated, with pH. It is filed as physicochemical. The settings on record: in physiological saline solution. The method, then: In order to determine the saturation solubilities, the oligopeptide was stirred for 1 hour at room temperature in the solvent indicated in each case.
Analogously to Example 1, the effect of addition of β-cyclodextrin ethers (MS 0.63) on the saturation solubilities of the oligopeptides was determined using the example of cilengitide.

By solubility is commonly meant how much of the substance goes into solution per volume.

The structures appear in SMILES notation. Values after ≈ are worked out from the molar mass of the structure shown.

`CC(C)[C@H]1C(=O)N[C@@H](CCCN=C(N)N)C(=O)NCC(=O)N[C@@H](CC(=O)O)C(=O)N[C@H](Cc2ccccc2)C(=O)N1C` [Cilengitide, cyclo-(Arg-Gly-Asp-D-Phe-NMe-Val)]: the solubility at 1 h is ~19 mg/mL (≈ 32.3 mM).
